According to ChEMBL document CHEMBL1129915, “A novel RGD containing dodecapeptidomimetic which exhibits selective binding to the v3 receptor” (Bioorg Med Chem Lett, 1997):

Assays:
Assay type in all cases: protein-complex assay
[1] = target: Integrin alpha-V/beta-5 (Homo sapiens) (UniProt P06756+P18084); test: Binding to Vitronectin receptor (alphaV-beta5) coated microtiter plates
[2] = target: Integrin alpha-IIb/beta-3 (Homo sapiens) (UniProt P05106+P08514); test: Binding to IIb/IIIa on vitronectin coated microtiter plates in ELISA
[3] = target: Fibronectin receptor (Integrin alpha-5/beta-1 and alpha-V/beta-3) (Homo sapiens) (UniProt P05106+P05556+P06756+P08648); test: Binding to Fibronectin receptor on vitronectin coated microtiter plates
Chain of Fibronectin receptor (Integrin alpha-5/beta-1 and alpha-V/beta-3) (Homo sapiens) (P05106 whole entry, looked up): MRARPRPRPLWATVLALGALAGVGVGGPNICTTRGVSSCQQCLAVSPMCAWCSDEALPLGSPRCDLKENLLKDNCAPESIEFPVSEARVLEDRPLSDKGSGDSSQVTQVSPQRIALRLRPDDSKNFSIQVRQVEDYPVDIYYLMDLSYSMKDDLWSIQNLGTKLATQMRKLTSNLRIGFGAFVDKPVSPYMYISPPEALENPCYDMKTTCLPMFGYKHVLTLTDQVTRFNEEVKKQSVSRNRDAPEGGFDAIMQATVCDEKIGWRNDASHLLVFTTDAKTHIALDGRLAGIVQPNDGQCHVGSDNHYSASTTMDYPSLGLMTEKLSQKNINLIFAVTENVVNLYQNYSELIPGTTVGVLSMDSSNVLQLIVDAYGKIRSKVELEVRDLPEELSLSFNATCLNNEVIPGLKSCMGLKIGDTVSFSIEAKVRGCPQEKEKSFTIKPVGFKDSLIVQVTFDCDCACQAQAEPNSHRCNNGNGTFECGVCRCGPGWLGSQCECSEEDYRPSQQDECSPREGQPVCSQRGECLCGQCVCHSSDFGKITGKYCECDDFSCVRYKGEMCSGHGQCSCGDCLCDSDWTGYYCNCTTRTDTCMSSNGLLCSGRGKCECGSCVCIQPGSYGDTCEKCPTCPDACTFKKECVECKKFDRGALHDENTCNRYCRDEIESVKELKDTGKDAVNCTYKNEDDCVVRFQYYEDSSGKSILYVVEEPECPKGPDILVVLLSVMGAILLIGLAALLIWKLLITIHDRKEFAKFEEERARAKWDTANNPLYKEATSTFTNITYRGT
Chain of Fibronectin receptor (Integrin alpha-5/beta-1 and alpha-V/beta-3) (Homo sapiens) (P05556 whole entry, looked up): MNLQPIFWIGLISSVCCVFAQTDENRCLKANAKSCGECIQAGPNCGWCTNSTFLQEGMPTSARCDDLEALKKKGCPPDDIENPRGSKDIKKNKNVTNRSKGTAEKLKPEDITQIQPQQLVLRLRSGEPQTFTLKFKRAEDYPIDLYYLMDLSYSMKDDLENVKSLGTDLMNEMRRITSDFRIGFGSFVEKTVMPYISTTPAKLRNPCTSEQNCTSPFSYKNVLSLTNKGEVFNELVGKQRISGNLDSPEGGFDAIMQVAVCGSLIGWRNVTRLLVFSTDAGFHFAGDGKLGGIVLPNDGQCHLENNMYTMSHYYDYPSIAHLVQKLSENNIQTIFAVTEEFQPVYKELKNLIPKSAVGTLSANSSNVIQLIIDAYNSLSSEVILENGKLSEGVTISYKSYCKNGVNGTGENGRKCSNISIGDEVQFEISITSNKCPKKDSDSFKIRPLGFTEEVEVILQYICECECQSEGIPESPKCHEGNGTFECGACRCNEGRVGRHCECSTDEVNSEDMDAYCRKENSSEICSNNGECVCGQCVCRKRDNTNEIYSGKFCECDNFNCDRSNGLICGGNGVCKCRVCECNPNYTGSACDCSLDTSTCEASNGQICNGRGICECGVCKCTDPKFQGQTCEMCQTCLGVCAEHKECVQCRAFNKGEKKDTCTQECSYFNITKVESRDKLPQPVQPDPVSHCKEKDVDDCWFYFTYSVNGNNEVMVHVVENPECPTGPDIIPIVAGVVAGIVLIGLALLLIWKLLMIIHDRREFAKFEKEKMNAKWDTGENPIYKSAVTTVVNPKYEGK
Chain of Fibronectin receptor (Integrin alpha-5/beta-1 and alpha-V/beta-3) (Homo sapiens) (P06756 whole entry, looked up): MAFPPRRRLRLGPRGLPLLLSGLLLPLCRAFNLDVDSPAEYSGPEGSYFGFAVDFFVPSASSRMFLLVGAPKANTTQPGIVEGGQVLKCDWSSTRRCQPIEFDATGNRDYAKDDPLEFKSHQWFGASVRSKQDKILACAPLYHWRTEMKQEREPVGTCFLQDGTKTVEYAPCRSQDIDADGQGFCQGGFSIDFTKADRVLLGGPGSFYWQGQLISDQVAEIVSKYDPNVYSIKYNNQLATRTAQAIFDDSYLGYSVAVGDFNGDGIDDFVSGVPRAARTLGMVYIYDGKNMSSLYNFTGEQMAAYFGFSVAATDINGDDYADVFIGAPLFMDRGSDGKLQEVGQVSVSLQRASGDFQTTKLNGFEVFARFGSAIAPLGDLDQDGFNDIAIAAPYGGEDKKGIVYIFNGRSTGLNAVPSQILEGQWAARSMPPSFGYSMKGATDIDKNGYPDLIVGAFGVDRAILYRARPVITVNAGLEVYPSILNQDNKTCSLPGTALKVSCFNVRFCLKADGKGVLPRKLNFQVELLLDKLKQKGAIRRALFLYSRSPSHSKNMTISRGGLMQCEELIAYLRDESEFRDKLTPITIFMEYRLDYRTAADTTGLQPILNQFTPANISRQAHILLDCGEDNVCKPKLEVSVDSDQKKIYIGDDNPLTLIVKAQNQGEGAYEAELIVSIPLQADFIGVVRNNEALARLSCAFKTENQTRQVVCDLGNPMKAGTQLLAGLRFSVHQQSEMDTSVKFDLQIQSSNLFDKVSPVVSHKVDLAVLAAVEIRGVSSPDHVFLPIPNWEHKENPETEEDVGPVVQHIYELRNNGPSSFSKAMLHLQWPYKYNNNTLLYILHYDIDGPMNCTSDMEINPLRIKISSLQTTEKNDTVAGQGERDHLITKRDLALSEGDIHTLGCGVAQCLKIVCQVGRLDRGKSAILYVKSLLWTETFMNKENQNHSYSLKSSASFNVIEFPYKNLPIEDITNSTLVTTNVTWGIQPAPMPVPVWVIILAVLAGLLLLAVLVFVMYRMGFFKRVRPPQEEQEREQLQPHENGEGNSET
Chain of Fibronectin receptor (Integrin alpha-5/beta-1 and alpha-V/beta-3) (Homo sapiens) (P08648 whole entry, looked up): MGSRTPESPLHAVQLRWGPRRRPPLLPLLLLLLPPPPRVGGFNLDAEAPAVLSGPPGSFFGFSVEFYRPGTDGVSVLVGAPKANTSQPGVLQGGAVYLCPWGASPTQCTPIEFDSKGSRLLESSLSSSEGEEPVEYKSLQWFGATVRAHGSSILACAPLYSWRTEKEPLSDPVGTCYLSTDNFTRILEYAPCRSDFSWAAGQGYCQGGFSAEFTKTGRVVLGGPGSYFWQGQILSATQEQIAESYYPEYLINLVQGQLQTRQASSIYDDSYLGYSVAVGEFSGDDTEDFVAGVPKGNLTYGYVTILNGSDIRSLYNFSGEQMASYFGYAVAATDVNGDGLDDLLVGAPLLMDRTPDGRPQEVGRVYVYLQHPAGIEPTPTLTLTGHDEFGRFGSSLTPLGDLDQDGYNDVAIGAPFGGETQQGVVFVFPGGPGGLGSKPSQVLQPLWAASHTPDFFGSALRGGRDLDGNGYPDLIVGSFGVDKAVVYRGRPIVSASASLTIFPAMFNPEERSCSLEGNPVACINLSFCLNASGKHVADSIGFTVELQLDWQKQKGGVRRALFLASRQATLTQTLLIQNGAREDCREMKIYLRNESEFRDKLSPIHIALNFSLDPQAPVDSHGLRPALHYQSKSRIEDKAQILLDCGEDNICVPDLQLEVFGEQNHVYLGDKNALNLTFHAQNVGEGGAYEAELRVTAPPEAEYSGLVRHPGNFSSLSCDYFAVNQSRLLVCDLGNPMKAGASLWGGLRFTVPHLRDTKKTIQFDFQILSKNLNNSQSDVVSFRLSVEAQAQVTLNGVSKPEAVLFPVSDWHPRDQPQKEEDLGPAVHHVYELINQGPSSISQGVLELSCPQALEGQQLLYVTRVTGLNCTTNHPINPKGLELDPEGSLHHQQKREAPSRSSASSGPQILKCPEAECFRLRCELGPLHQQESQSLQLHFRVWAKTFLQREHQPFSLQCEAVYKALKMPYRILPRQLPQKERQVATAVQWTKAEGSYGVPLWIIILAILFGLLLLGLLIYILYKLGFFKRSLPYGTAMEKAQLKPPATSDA

[4] = target: Integrin alpha-V/beta-3 (Homo sapiens) (UniProt P05106+P06756); test: Binding to Vitronectin receptor (alphaV-beta3) of PMA stimulated human-derived B lymphocyte on vitronectin coated microtiter plates

## NCC(=O)N[C@@H](CCCN=C(N)N)C(=O)NCC(=O)N[C@@H](CC(=O)O)C(=O)N[C@@H](CO)C(=O)N1CCC[C@H]1C(=O)O
[1]
  Binding activity: 0.582 µM
[2]
  Binding activity: 0.8 µM
[3]
  Binding activity: 0.02 µM
[4]
  Binding activity: 50 µM
